{"source": "patent US8273788B2", "about": "“Five-membered iminocyclitol derivatives as selective and potent glycosidase inhibitors: new structures for antivirals and osteoarthritis therapeutics” (Academia Sinica, Taiwan, priority 2005, dated 2012)", "key": {"α-glucosidase": {"target": "T1, α-glucosidase (Saccharomyces cerevisiae, UniProt P53341)", "T1 construct": "purchased Sigma Co. (St. Louis, Mo.); host or cells: baker's yeast", "T1 sequence (P53341 whole entry)": "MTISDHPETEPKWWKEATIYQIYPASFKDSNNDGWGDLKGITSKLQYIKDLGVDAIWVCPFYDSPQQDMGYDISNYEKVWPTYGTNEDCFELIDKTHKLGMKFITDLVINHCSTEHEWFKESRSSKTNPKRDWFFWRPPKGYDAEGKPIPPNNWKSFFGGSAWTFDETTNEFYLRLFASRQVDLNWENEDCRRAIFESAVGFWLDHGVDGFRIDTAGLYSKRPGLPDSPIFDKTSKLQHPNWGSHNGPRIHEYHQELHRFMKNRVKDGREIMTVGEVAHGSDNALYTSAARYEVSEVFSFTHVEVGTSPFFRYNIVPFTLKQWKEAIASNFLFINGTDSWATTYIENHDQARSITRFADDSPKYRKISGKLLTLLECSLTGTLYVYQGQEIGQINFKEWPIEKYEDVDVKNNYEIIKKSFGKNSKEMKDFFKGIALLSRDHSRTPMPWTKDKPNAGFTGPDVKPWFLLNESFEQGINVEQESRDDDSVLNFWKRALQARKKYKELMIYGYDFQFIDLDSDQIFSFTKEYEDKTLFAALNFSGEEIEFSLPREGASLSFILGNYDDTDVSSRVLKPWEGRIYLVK", "experiment": "α-glucosidase inhibition assay (in situ screen, IC50, Ki)", "assay_type": "biochemical, baker's yeast", "conditions": "for α-glucosidase Inhibition (%): reaction product at 20 μM, in situ screening; for IC50: pure compound", "method": "(§1) A mixture of iminocyclitol 4, a carboxylic acid (1 equiv, Scheme 2), diisopropyl ethylamine (DIEA, 2.2 equiv), and (1H-benzotriazole-1-yl)-1,1,3,3-tetramethyl-uronium hexafluorophosphate (HBTU, 1.1 equiv) in DMSO was shaken in 96-well microtiter plates for 5 h. Crude reaction products were randomly selected (30%) and analyzed by ESI-MS to ensure the presence of the desired products. The reaction mixture was diluted by appropriate buffer solutions and transferred to another 96-well microtiter plate for screening directly without any purification. […] Assuming the amide formation is complete, the percentage of inhibition relative to the control was calculated on the basis of absorbance at 405 nm for p-nitrophenol released from their corresponding substrates.\nGeneral procedure for coupling reactions and in situ screening. To a DMSO solution (10 μL) in each well of a 96-well microtiter plate was added each carboxylic acid (10 μL from a 10 mm stock solution in DMSO, 0.1 μmol), HBTU (10 μL from a 11 mm stock solution in DMSO, 1.1 equiv, 0.11 μmol), and DIEA (10 μL from a 22 mM stock solution in DMSO, 2.2 equiv, 0.22 μmol).\n(§2) Enzyme assay. General procedure for the assay with various glycosidases. The initial velocities of the hydrolysis were measured spectrophotometrically at various concentrations of p-nitrophenyl-glycopyranoside (4 mM, 2 mM, 1 mM, 0.5 mM, 0.25 mM, 0.125 mM, 0.0625 mM) at 405 nm using Bio Assay Reader (Perkin Elmer HTS 7000 Plus) at 30° C. The obtained data were fitted into the Michaelis-Menten equation by using the Kaleida Graph program to determine the apparent Km values. […] The assays performed in wells of the microtiter plate contained either sodium phosphate buffer (50 mM, pH 7, for α- and β-glucosidase, α- and β-galactosidase, α- and β-mannosidase, α-fucosidase), or Mcllvaine's buffer (25 mM, pH 6, N-acetyl-β-hexosaminidase, jack bean).\n(§3) The secondary plot was generated by plotting the apparent Km values as a function of inhibitor concentrations. Ki was calculated from the negative value of the x-intercept of this plot."}, "β-glucosidase": {"test_system": "β-glucosidase", "experiment": "β-glucosidase inhibition assay (in situ screen, IC50, Ki)", "assay_type": "biochemical, almonds", "conditions": "for β-glucosidase Inhibition (%): reaction product at 20 μM, in situ screening; for IC50: pure compound; for Ki: value in brackets", "method": "as §1, §2, §3"}, "[1]": {"test_system": "N-acetyl-β-hexosaminidase", "experiment": "N-acetyl-β-hexosaminidase inhibition assay (in situ screen, IC50, Ki)", "assay_type": "biochemical, jack bean", "conditions": "for N-acetyl-β-hexosaminidse Inhibition (%): reaction product at 30 μM, in situ screening; for IC50: pure compound, read-out: N-acetyl-β-hexosaminidse IC50", "method": "as §1, §2, §3"}}, "data": [{"smiles": "O=C(CO)NC[C@H]1N[C@H](CO)[C@@H](O)[C@@H]1O", "note": "[Compound 6]", "values": [{"measurement": "α-glucosidase Inhibition (%)", "setting": "α-glucosidase", "value": 10, "unit": "%"}, {"measurement": "β-glucosidase Inhibition (%)", "setting": "β-glucosidase", "value": 23, "unit": "%"}, {"measurement": "N-acetyl-β-hexosaminidse Inhibition (%)", "setting": "[1]", "value": 67, "unit": "%"}]}, {"smiles": "NC(Cn1ccc(=O)cc1)C(=O)NCC1NC(CO)C(O)C1O", "note": "(centres unmarked) [Compound 9]", "values": [{"measurement": "α-glucosidase Inhibition (%)", "setting": "α-glucosidase", "value": 27, "unit": "%"}, {"measurement": "β-glucosidase Inhibition (%)", "setting": "β-glucosidase", "value": 37, "unit": "%"}, {"measurement": "N-acetyl-β-hexosaminidse Inhibition (%)", "setting": "[1]", "value": 53, "unit": "%"}]}, {"smiles": "O=C(NC[C@H]1N[C@H](CO)[C@@H](O)[C@@H]1O)c1ccccc1", "note": "[Compound 10]", "values": [{"measurement": "α-glucosidase Inhibition (%)", "setting": "α-glucosidase", "value": 16, "unit": "%"}, {"measurement": "β-glucosidase Inhibition (%)", "setting": "β-glucosidase", "value": 12, "unit": "%"}, {"measurement": "N-acetyl-β-hexosaminidse Inhibition (%)", "setting": "[1]", "value": 13, "unit": "%"}]}, {"smiles": "CN(C)c1ccc(C(=O)NC[C@H]2N[C@H](CO)[C@@H](O)[C@@H]2O)cc1", "note": "[Compound 11]", "values": [{"measurement": "α-glucosidase Inhibition (%)", "setting": "α-glucosidase", "value": 41, "unit": "%"}, {"measurement": "β-glucosidase Inhibition (%)", "setting": "β-glucosidase", "value": 55, "unit": "%"}, {"measurement": "N-acetyl-β-hexosaminidse Inhibition (%)", "setting": "[1]", "value": 6, "unit": "%"}]}, {"smiles": "O=C(/C=C/c1cccc(C(F)(F)F)c1)NC[C@H]1N[C@H](CO)[C@@H](O)[C@@H]1O", "note": "[Compound 12]", "values": [{"measurement": "α-glucosidase Inhibition (%)", "setting": "α-glucosidase", "value": 19, "unit": "%"}, {"measurement": "β-glucosidase Inhibition (%)", "setting": "β-glucosidase", "value": 49, "unit": "%"}, {"measurement": "N-acetyl-β-hexosaminidse Inhibition (%)", "setting": "[1]", "value": 8, "unit": "%"}]}, {"smiles": "O=C(/C=C/c1cccc(Cl)c1)NC[C@H]1N[C@H](CO)[C@@H](O)[C@@H]1O", "note": "[Compound 13]", "values": [{"measurement": "α-glucosidase Inhibition (%)", "setting": "α-glucosidase", "value": 19, "unit": "%"}, {"measurement": "β-glucosidase Inhibition (%)", "setting": "β-glucosidase", "value": 59, "unit": "%"}, {"measurement": "N-acetyl-β-hexosaminidse Inhibition (%)", "setting": "[1]", "value": 3, "unit": "%"}]}, {"smiles": "CSc1ccccc1C(=O)NC[C@H]1N[C@H](CO)[C@@H](O)[C@@H]1O", "note": "[Compound 14]", "values": [{"measurement": "α-glucosidase Inhibition (%)", "setting": "α-glucosidase", "value": 51, "unit": "%"}, {"measurement": "β-glucosidase Inhibition (%)", "setting": "β-glucosidase", "value": 7, "unit": "%"}, {"measurement": "N-acetyl-β-hexosaminidse Inhibition (%)", "setting": "[1]", "value": 54, "unit": "%"}]}, {"smiles": "O=C(NC[C@H]1N[C@H](CO)[C@@H](O)[C@@H]1O)c1ccc2ccccc2c1", "note": "[Compound 15]", "values": [{"measurement": "IC50", "setting": "α-glucosidase", "value": 100, "unit": "µM"}, {"measurement": "α-glucosidase Inhibition (%)", "setting": "α-glucosidase", "value": 45, "unit": "%"}, {"measurement": "IC50", "setting": "β-glucosidase", "value": 58, "unit": "µM"}, {"measurement": "β-glucosidase Inhibition (%)", "setting": "β-glucosidase", "value": 28, "unit": "%"}, {"measurement": "Ki", "setting": "β-glucosidase", "value": 30, "unit": "µM"}, {"measurement": "IC50", "setting": "[1]", "value": 44, "unit": "µM"}, {"measurement": "N-acetyl-β-hexosaminidse Inhibition (%)", "setting": "[1]", "value": 31, "unit": "%"}]}, {"smiles": "O=C(Cc1ccc2ccccc2c1)NC[C@H]1N[C@H](CO)[C@@H](O)[C@@H]1O", "note": "[Compound 16]", "values": [{"measurement": "IC50", "setting": "α-glucosidase", "value": 19, "unit": "µM"}, {"measurement": "α-glucosidase Inhibition (%)", "setting": "α-glucosidase", "value": 67, "unit": "%"}, {"measurement": "IC50", "setting": "β-glucosidase", "value": 49, "unit": "µM"}, {"measurement": "β-glucosidase Inhibition (%)", "setting": "β-glucosidase", "value": 44, "unit": "%"}, {"measurement": "IC50", "setting": "[1]", "value": 15, "unit": "µM"}, {"measurement": "N-acetyl-β-hexosaminidse Inhibition (%)", "setting": "[1]", "value": 10, "unit": "%"}]}, {"smiles": "COC(=O)c1ccc2[nH]c(C(=O)NC[C@H]3N[C@H](CO)[C@@H](O)[C@@H]3O)cc2c1", "note": "[Compound 18]", "values": [{"measurement": "IC50", "setting": "α-glucosidase", "value": 120, "unit": "µM"}, {"measurement": "α-glucosidase Inhibition (%)", "setting": "α-glucosidase", "value": 36, "unit": "%"}, {"measurement": "IC50", "setting": "β-glucosidase", "value": 10, "unit": "µM"}, {"measurement": "β-glucosidase Inhibition (%)", "setting": "β-glucosidase", "value": 53, "unit": "%"}, {"measurement": "Ki", "setting": "β-glucosidase", "value": 6.2, "unit": "µM"}, {"measurement": "IC50", "setting": "[1]", "value": 42, "unit": "µM"}, {"measurement": "N-acetyl-β-hexosaminidse Inhibition (%)", "setting": "[1]", "value": 23, "unit": "%"}]}, {"smiles": "O=C(NC[C@H]1N[C@H](CO)[C@@H](O)[C@@H]1O)c1ccc2[nH]ccc2c1", "note": "[Compound 19]", "values": [{"measurement": "α-glucosidase Inhibition (%)", "setting": "α-glucosidase", "value": 82, "unit": "%"}, {"measurement": "β-glucosidase Inhibition (%)", "setting": "β-glucosidase", "value": 15, "unit": "%"}, {"measurement": "N-acetyl-β-hexosaminidse Inhibition (%)", "setting": "[1]", "value": 14, "unit": "%"}]}, {"smiles": "O=C(CCc1c[nH]c2ccccc12)NC[C@H]1N[C@H](CO)[C@@H](O)[C@@H]1O", "note": "[Compound 21]", "values": [{"measurement": "IC50", "setting": "α-glucosidase", "value": 11, "unit": "µM"}, {"measurement": "α-glucosidase Inhibition (%)", "setting": "α-glucosidase", "value": 83, "unit": "%"}, {"measurement": "IC50", "setting": "β-glucosidase", "value": 75, "unit": "µM"}, {"measurement": "β-glucosidase Inhibition (%)", "setting": "β-glucosidase", "value": 20, "unit": "%"}, {"measurement": "IC50", "setting": "[1]", "value": 3.2, "unit": "µM"}, {"measurement": "N-acetyl-β-hexosaminidse Inhibition (%)", "setting": "[1]", "value": 27, "unit": "%"}]}, {"smiles": "O=C(NC[C@H]1N[C@H](CO)[C@@H](O)[C@@H]1O)c1cn(Cc2ccccc2)c2ccccc12", "note": "[Compound 23]", "values": [{"measurement": "IC50", "setting": "α-glucosidase", "value": 17, "unit": "µM"}, {"measurement": "α-glucosidase Inhibition (%)", "setting": "α-glucosidase", "value": 63, "unit": "%"}, {"measurement": "IC50", "setting": "β-glucosidase", "value": 92, "unit": "µM"}, {"measurement": "β-glucosidase Inhibition (%)", "setting": "β-glucosidase", "value": 28, "unit": "%"}, {"measurement": "IC50", "setting": "[1]", "value": 4.7, "unit": "µM"}, {"measurement": "N-acetyl-β-hexosaminidse Inhibition (%)", "setting": "[1]", "value": 14, "unit": "%"}]}, {"smiles": "O=C(NC[C@H]1N[C@H](CO)[C@@H](O)[C@@H]1O)c1ccc2c(c1)C(=O)c1ccccc1-2", "note": "[Compound 25]", "values": [{"measurement": "α-glucosidase Inhibition (%)", "setting": "α-glucosidase", "value": 56, "unit": "%"}, {"measurement": "β-glucosidase Inhibition (%)", "setting": "β-glucosidase", "value": 63, "unit": "%"}, {"measurement": "N-acetyl-β-hexosaminidse Inhibition (%)", "setting": "[1]", "value": 17, "unit": "%"}]}, {"smiles": "O=C(/C=C/c1cccc(Br)c1)NC[C@H]1N[C@H](CO)[C@@H](O)[C@@H]1O", "note": "[Compound 26]", "values": [{"measurement": "α-glucosidase Inhibition (%)", "setting": "α-glucosidase", "value": 31, "unit": "%"}, {"measurement": "β-glucosidase Inhibition (%)", "setting": "β-glucosidase", "value": 52, "unit": "%"}, {"measurement": "N-acetyl-β-hexosaminidse Inhibition (%)", "setting": "[1]", "value": 17, "unit": "%"}]}, {"smiles": "Cc1ccc(/C=C/C(=O)NC[C@H]2N[C@H](CO)[C@@H](O)[C@@H]2O)cc1", "note": "[Compound 27]", "values": [{"measurement": "α-glucosidase Inhibition (%)", "setting": "α-glucosidase", "value": 26, "unit": "%"}, {"measurement": "β-glucosidase Inhibition (%)", "setting": "β-glucosidase", "value": 55, "unit": "%"}, {"measurement": "N-acetyl-β-hexosaminidse Inhibition (%)", "setting": "[1]", "value": 6, "unit": "%"}]}]}
